Source: the supplement of paper PMC11451515

System: P12-Ichikawa
Experiment: cell viability relative to DMSO control; higher = less cytotoxic
Conditions: 48 h
Outline: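 Three leukemia lines were tested: NOMO1 and SEM at 500 cells/well and P12-Ichikawa at 1000 cells/well. Each was adapted for at least four passages in each medium and seeded in 5 μl in 1536-well plates, and library compounds in DMSO were pin-dosed from 47 μM to 0.79 nM in 11 threefold steps. After 48 h at 37°C, CellTiter-Glo One luminescence was read. Viability is a percentage relative to DMSO wells on each plate, with cell-free wells as background.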

[1] = HPLM + 10% dialyzed FBS, 0.000781 µM
[2] = HPLM + 10% dialyzed FBS, 0.00234 µM
[3] = HPLM + 10% dialyzed FBS, 0.00702 µM
[4] = HPLM + 10% dialyzed FBS, 0.0211 µM
[5] = HPLM + 10% dialyzed FBS, 0.0632 µM
[6] = HPLM + 10% dialyzed FBS, 0.19 µM
[7] = HPLM + 10% dialyzed FBS, 0.569 µM
[8] = HPLM + 10% dialyzed FBS, 1.71 µM
[9] = HPLM + 10% dialyzed FBS, 5.12 µM
[10] = HPLM + 10% dialyzed FBS, 15.4 µM
[11] = HPLM + 10% dialyzed FBS, 46.1 µM
[12] = RPMI 5 mM glucose + 10% FBS, 0.000781 µM
[13] = RPMI 5 mM glucose + 10% FBS, 0.00234 µM
[14] = RPMI 5 mM glucose + 10% FBS, 0.00702 µM
[15] = RPMI 5 mM glucose + 10% FBS, 0.0211 µM
[16] = RPMI 5 mM glucose + 10% FBS, 0.0632 µM
[17] = RPMI 5 mM glucose + 10% FBS, 0.19 µM
[18] = RPMI 5 mM glucose + 10% FBS, 0.569 µM
[19] = RPMI 5 mM glucose + 10% FBS, 1.71 µM
[20] = RPMI 5 mM glucose + 10% FBS, 5.12 µM
[21] = RPMI 5 mM glucose + 10% FBS, 15.4 µM
[22] = RPMI 5 mM glucose + 10% FBS, 46.1 µM
[23] = RPMI 5 mM glucose + 10% dialyzed FBS, 0.000781 µM
[24] = RPMI 5 mM glucose + 10% dialyzed FBS, 0.00234 µM
[25] = RPMI 5 mM glucose + 10% dialyzed FBS, 0.00702 µM
[26] = RPMI 5 mM glucose + 10% dialyzed FBS, 0.0211 µM
[27] = RPMI 5 mM glucose + 10% dialyzed FBS, 0.0632 µM
[28] = RPMI 5 mM glucose + 10% dialyzed FBS, 0.19 µM
[29] = RPMI 5 mM glucose + 10% dialyzed FBS, 0.569 µM
[30] = RPMI 5 mM glucose + 10% dialyzed FBS, 1.71 µM
[31] = RPMI 5 mM glucose + 10% dialyzed FBS, 5.12 µM
[32] = RPMI 5 mM glucose + 10% dialyzed FBS, 15.4 µM
[33] = RPMI 5 mM glucose + 10% dialyzed FBS, 46.1 µM

| Structure (SMILES) | cell viability [1] [%] | cell viability [2] [%] | cell viability [3] [%] | cell viability [4] [%] | cell viability [5] [%] | cell viability [6] [%] | cell viability [7] [%] | cell viability [8] [%] | cell viability [9] [%] | cell viability [10] [%] | cell viability [11] [%] | cell viability [12] [%] | cell viability [13] [%] | cell viability [14] [%] | cell viability [15] [%] | cell viability [16] [%] | cell viability [17] [%] | cell viability [18] [%] | cell viability [19] [%] | cell viability [20] [%] | cell viability [21] [%] | cell viability [22] [%] | cell viability [23] [%] | cell viability [24] [%] | cell viability [25] [%] | cell viability [26] [%] | cell viability [27] [%] | cell viability [28] [%] | cell viability [29] [%] | cell viability [30] [%] | cell viability [31] [%] | cell viability [32] [%] | cell viability [33] [%] |
| --- | --- | --- | --- | --- | --- | --- | --- | --- | --- | --- | --- | --- | --- | --- | --- | --- | --- | --- | --- | --- | --- | --- | --- | --- | --- | --- | --- | --- | --- | --- | --- | --- | --- |
| C[S+](=O)([O-])c1ccc(C(=O)Nc2ccc(Cl)c(-c3ccccn3)c2)c(Cl)c1 | 113 | 113 | 123 | 132 | 131 | 135 | 136 | 125 | 131 | 126 | 127 | – | – | – | – | – | – | – | – | – | – | – | – | – | – | – | – | – | – | – | – | – | – |
| Cc1csc(NC(=O)c2sc3nc4c(c(C(F)(F)F)c3c2N)CCC4)n1 | 88.3 | 102 | 98.1 | 98 | 94.4 | 93.8 | 95 | 91.3 | 90.3 | 84.5 | 83.4 | 87.2 | 100 | 94 | 92.1 | 88.6 | 91.1 | 98.7 | 90.1 | 88.1 | 79.2 | 86.5 | 82.7 | 83.3 | 81.6 | 84.3 | 89.4 | 86.4 | 88.6 | 78.2 | 84.9 | 69.9 | 73.6 |
| COc1ncnc(N[S+](=O)([O-])c2ccc(N)cc2)c1OC | 113 | 117 | 116 | 112 | 109 | 92.6 | 79.8 | 72 | 25.8 | 22.2 | 27 | 115 | 111 | 116 | 124 | 101 | 85.3 | 73.3 | 59.3 | 43.8 | 12.9 | 11.6 | 108 | 116 | 113 | 103 | 97.1 | 86.3 | 66.6 | 53.8 | 39.4 | 18.7 | 14.8 |
| CN1C(=O)C[C@H](C(=O)N[C@@H](Cc2cnc[nH]2)C(=O)N2CCC[C@H]2C(N)=O)NC1=O | – | – | – | – | – | – | – | – | – | – | – | – | – | – | – | – | – | – | – | – | – | – | 114 | 128 | 121 | 115 | 132 | 123 | 118 | 120 | 119 | 119 | 90.6 |
| CCC(=O)N[C@H]1CC[C@H](C(=O)N(C)c2ccc(-c3nc4ccccc4o3)cc2)C1 | 95.4 | 97.1 | 101 | 102 | 100 | 99.5 | 110 | 103 | 107 | 104 | 84.4 | 92.3 | 95.4 | 96.4 | 91.3 | 101 | 105 | 108 | 95.6 | 97.5 | 100 | 54.8 | 89.9 | 92.2 | 91.5 | 98.3 | 94 | 99.7 | 98.2 | 109 | 99 | 94.6 | 65.1 |
| Nc1ncnc2ccccc12 | 87.8 | 92.3 | 95.5 | 9.38 | 106 | 100 | 106 | 105 | 105 | 100 | 111 | 84.2 | 90.7 | 88.3 | 13.7 | 104 | 102 | 105 | 97.2 | 97.8 | 104 | 104 | 86.2 | 91.8 | 93.5 | 28.2 | 102 | 102 | 100 | 92.3 | 103 | 99.1 | 94 |
| O=C\1N(N\C=C1[N]2C=CN=N2)C3=NC=NC(=C3)N4CCOCC4 | 78.4 | 81.7 | 76.7 | 82.8 | 56.6 | 32.5 | 18.6 | 20.6 | 19.2 | 15.9 | 8.11 | 68.7 | 82.9 | 76.4 | 81 | 74.8 | 46.8 | 13.4 | 30.9 | 16.8 | 15.2 | 11.9 | 74.2 | 83.1 | 78.1 | 78.6 | 72.2 | 47.2 | 34.4 | 38.9 | 20.8 | 26.8 | 17 |
| COc1cc2c(Nc3ccc(Br)cc3F)ncnc2cc1OCC1CCN(C)CC1 | 87.8 | 93.5 | 91.3 | 91.1 | 91.9 | 88.4 | 87.8 | 82.8 | 89.9 | 73.9 | 86.9 | 82 | 81.8 | 79 | 87.7 | 87.3 | 81.7 | 85.2 | 84.8 | 80.6 | 80.9 | 83 | 88.7 | 86.1 | 84.6 | 83.3 | 88.3 | 88.8 | 84.5 | 84.4 | 76.9 | 68 | 79.8 |
| NCCCCNCCCN | 108 | 108 | 115 | 108 | 110 | 121 | 115 | 116 | 109 | 104 | 41.4 | 110 | 109 | 113 | 114 | 114 | 118 | 123 | 118 | 105 | 73.7 | 3.31 | 101 | 102 | 98.4 | 116 | 104 | 111 | 115 | 111 | 115 | 87 | 6.5 |
